13 compounds from PubChem BioAssay (NCI) can be followed below.

Some test systems named below: MALME-3M melanoma; HT29 colon; CCRF-CEM leukemia; M14 melanoma; PC-3 prostate; UACC-257 melanoma; MDA-N; IGROV1 ovarian; KM12 colon; HCT-116 colon; U251 CNS; NCI-H226 lung; HS 578T breast.
Common to all, as to assay: NCI anticancer screen, dose series, 48 h

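Test compounds were applied to cells in 96-well plates for 48 hours at 5 doses. GI50 marks 50% less growth. At the TGI there is no net growth.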

Take `Cn1c(=O)c2[nH]c(Nc3cccc(Cl)c3)nc2n(C)c1=O`: the TGI in the assay with MALME-3M melanoma, in the assay on HT29 colon, in the assay on CCRF-CEM leukemia, in the assay with M14 melanoma, with PC-3 prostate and in the assay on UACC-257 melanoma was > 10 µM each time. Further, the TGI in the assay on MDA-N, in the assay with IGROV1 ovarian and in the assay with KM12 colon was > 10 µM in each case.
Regarding `CCC1(c2ccc(OC)c(OC)c2)CCN2C(=O)C(O)CC21` (stereo unspecified), the TGI in the assay on HT29 colon, in the assay on HCT-116 colon, with CCRF-CEM leukemia, with M14 melanoma, in the assay on PC-3 prostate and in the assay on U251 CNS was > 100 µM in each case. For the same compound, the TGI with UACC-257 melanoma, in the assay on MDA-N, in the assay with NCI-H226 lung, in the assay with IGROV1 ovarian and with KM12 colon was > 100 µM in each case.
As to `CN1C2CCC1C(CO)C(=O)C2` (stereo unspecified), the TGI in the assay on MALME-3M melanoma is 66.5 µM; in the assay on CCRF-CEM leukemia, 27.4 µM; in the assay with HS 578T breast it was > 100 µM; with PC-3 prostate it was > 100 µM; with U251 CNS it was > 100 µM; with UACC-257 melanoma, > 100 µM. Further, the TGI with NCI-H226 lung, in the assay on IGROV1 ovarian and in the assay with KM12 colon was > 100 µM in each case.
Turning to `CCCC/C=C1\CCC(CN2CCCC2)C1=O` (stereo unspecified), the TGI in the assay with MALME-3M melanoma was determined as 33.1 µM; in the assay on HT29 colon it was 31.5 µM; in the assay with HCT-116 colon, 27.3 µM; in the assay on CCRF-CEM leukemia it was 25 µM; in the assay with M14 melanoma, 23.4 µM; in the assay on U251 CNS, 19.6 µM. The TGI with UACC-257 melanoma stood at 32.8 µM; with NCI-H226 lung, 31.8 µM; in the assay with IGROV1 ovarian it was 34.2 µM; with KM12 colon it was 8.28 µM.
With `Oc1ccc(C[C@@H]2CN[C@H](Cc3ccc(O)c(Br)c3)CN2)cc1`, the TGI in the assay on HT29 colon, in the assay on HCT-116 colon, in the assay with CCRF-CEM leukemia, with M14 melanoma, in the assay with HS 578T breast and in the assay on PC-3 prostate was > 100 µM in each case. Further, the TGI with U251 CNS, in the assay on UACC-257 melanoma, in the assay on NCI-H226 lung, in the assay on IGROV1 ovarian and with KM12 colon was > 100 µM in each case.
For `NC(=O)c1ncn(C2OC(CO)C(O)C2O)c1NC(=S)NC(=O)c1ccccc1` (stereo unspecified), the TGI in the assay on MALME-3M melanoma, with HT29 colon, in the assay with HCT-116 colon, with CCRF-CEM leukemia, in the assay on M14 melanoma and with U251 CNS was > 100 µM in each case. The TGI in the assay on UACC-257 melanoma, in the assay on NCI-H226 lung, in the assay on IGROV1 ovarian and with KM12 colon was > 100 µM each time.
Regarding `O=C(/C=C/CC(O)(c1ccccc1)c1ccccc1)Nc1ccccc1Cl`, the TGI in the assay with MALME-3M melanoma, in the assay with HT29 colon, in the assay with HCT-116 colon, in the assay with CCRF-CEM leukemia, in the assay with M14 melanoma and in the assay on U251 CNS was > 100 µM in each case. Moreover, the TGI in the assay with UACC-257 melanoma, with NCI-H226 lung and in the assay with KM12 colon was > 100 µM each time.
Regarding `O=C(O)C12C3C4(C(=O)O)C1C1(C(=O)O)C2C3(C(=O)O)C41` (stereo unspecified), the TGI in the assay with MALME-3M melanoma, in the assay on HT29 colon, in the assay with HCT-116 colon, in the assay on CCRF-CEM leukemia, with M14 melanoma and with HS 578T breast was > 100 µM throughout. Moreover, the TGI with PC-3 prostate, with U251 CNS, in the assay on UACC-257 melanoma, in the assay with MDA-N, in the assay on IGROV1 ovarian and in the assay with KM12 colon was > 100 µM each time.
With `C[C@@](Br)(C(=O)O)[C@H](Br)C(=O)O`, the TGI in the assay with MALME-3M melanoma, in the assay on HT29 colon, in the assay on HCT-116 colon, in the assay with CCRF-CEM leukemia, in the assay with M14 melanoma and in the assay on PC-3 prostate was > 100 µM each time. In addition, the TGI in the assay on U251 CNS, with UACC-257 melanoma, in the assay with MDA-N, in the assay with NCI-H226 lung, in the assay on IGROV1 ovarian and with KM12 colon was > 100 µM throughout.
With `O=C1CN(c2ccccc2)C(=O)C1C(=O)Nc1ccc(Cl)c(Cl)c1` (stereo unspecified), the TGI in the assay on HT29 colon is 17.2 µM; in the assay on CCRF-CEM leukemia, > 100 µM; in the assay with M14 melanoma, 12.6 µM; with U251 CNS it was 14.9 µM; with UACC-257 melanoma it was 22.7 µM; in the assay on IGROV1 ovarian it was 14.9 µM.
On to `CCOC(=O)C(NC(=O)CC)(Nc1ccccc1F)C(F)(F)F` (stereo unspecified), for which the TGI with HT29 colon, with HCT-116 colon, in the assay with M14 melanoma, in the assay with HS 578T breast, in the assay with PC-3 prostate and in the assay on U251 CNS was > 100 µM throughout. In addition, the TGI with UACC-257 melanoma, with MDA-N, with IGROV1 ovarian and with KM12 colon was > 100 µM throughout.
As for `CCc1ccc(OCc2ccccc2C(=O)Nc2ccc3nc(C)cc(N)c3c2)cc1`, the GI50 is 1.74 µM in the assay on MALME-3M melanoma, 1.79 µM in the assay with HS 578T breast, 1.52 µM in the assay on PC-3 prostate and 1.83 µM with UACC-257 melanoma. Further, the TGI in the assay with MALME-3M melanoma was 3.35 µM; in the assay on HS 578T breast, 4.38 µM; with PC-3 prostate, 2.93 µM; in the assay with UACC-257 melanoma, 3.37 µM.
With `COc1cccc(Nc2nc3c([nH]2)c(=O)n(C)c(=O)n3C)c1`, the TGI with MALME-3M melanoma, with HT29 colon, in the assay with CCRF-CEM leukemia, in the assay with M14 melanoma, in the assay on PC-3 prostate and with UACC-257 melanoma was > 10 µM each time. The TGI in the assay with MDA-N, in the assay with IGROV1 ovarian and in the assay on KM12 colon was > 10 µM in each case.
